Counter-ions that a name gives are not always drawn.
Test system: hypoxia-induced death
Assay: Anoxic Nitrogen Test in Rats (survival after 1 min pure N2)
Type: in vivo, male Sprague-Dawley rats
Settings: Rattus norvegicus, ip, Table 2; 40 mg/kg ip; read-out: Rating (survival)
From the text: Most specifically, administration of the compounds of Formula I results in protecting against hypoxia-induced death in an anoxic nitrogen test in rats. This particular test identifies the neuro-protective effects of substances against lethal brain damages produced by a lack of oxygen consumption (anoxia). In this test procedure, control animals exposed for one minute to a pure nitrogen atmosphere will expire because of respiratory failure caused by irreversible damage to the brain respiratory center.
The animals utilized are male Sprague-Dawley rats (200-240 grams) housed four animals per cage in a normal controlled environment with unlimited access to food and water. Usually there are 8 animals per dose, however, 4 animals can be employed to obtain an initial impression of a compound's activity. Animals surviving the anoxic insult are sacrificed via CO2 inhalation following completion of the observation session (2 hr).
[…] The anoxic episode consists of placing up to 4 animals in the sealed test chamber (10" l×10" w×6" h) continuously flushed with pure N2 (4.5 grade) at a flow rate of 3 SCFM for 1 min. Animals are then promptly removed to normal atmosphere and observed for the 2 hour time period. Typically, animals become disoriented within 15 sec which leads into convulsions at 30 to 35 sec after which they remain motionless.
In spite of the fact that after the N2 exposure the heart is still beating, all control animals fail to gasp when removed from the chamber and usually expire within 3 minutes. Drug treated animals, however, still gasp or start gasping after being removed which is a good indication if an animal will survive the N2 exposure (1).
Results are recorded as: [formula] and are statistically evaluated using the Finney Dose Response program for determination of the ED50 and its corresponding 95% confidence limits.
Compounds of the present invention were rated at each dose level tested using the following rating scale:
+=weak activity (up to 25% survival)
++=moderate activity (25-50% survival)
+++=good activity (51-75% survival)
++++=very good activity (76-100%)

First: CC(=O)NC(CCCN1CCN(c2ncc(F)cn2)CC1)c1ccc(F)cc1 (centres unmarked) [Example 18, 1-[4-Acetamido-4-(4-fluorophenyl)butyl]-4-(5-fluoro-2-pyrimidinyl)piperazine monohydrochloride]
Second: O=C(NC(CCCN1CCN(c2ncc(F)cn2)CC1)c1ccc(F)cc1)c1ccc(F)cc1 (centres unmarked) [Example 19, 1-[4-(4-Fluorobenzamido)-4-(4-fluorophenyl)butyl]-4-(5-fluoro-2-pyrimidinyl)piperazine]
The responders at 40 mg/kg of the first is lower: < 25% for the first, 76 to 100% for the second.

First: O=C(CCCN1CCN(c2ncc(F)cn2)CC1)c1ccc(F)c2ccccc12 [Example 13, 1-(4-Fluoronaphth-1-yl)-4-[4-(5-fluoro-2-pyrimidinyl)-1-piperazinyl]butanon]
Second: O=C(CCCN1CCN(c2ncc(F)cn2)CC1)c1cccs1 [Example 12, 1-(2-Thienyl)-4-[4-(5-fluoro-2-pyrimidinyl)-1-piperazinyl]butanone]
The responders at 40 mg/kg of the first is higher: 25 to 50% for the first, < 25% for the second.

`O=S(=O)(CCCN1CCN(c2ncc(F)cn2)CC1)c1ccc(F)cc1` [Example 21, 1-[3-(4-Fluorophenylsulfonyl)propyl]-4-(5-fluoro-2-pyrimidinyl)piperazine] and `Fc1cnc(N2CCN(CCCC3OCCO3)CC2)nc1` [Example 11, 1-[3-(1,3-dioxolan-2-yl)propyl]-4-(5-Fluoro-2-pyrimidinyl) piperazine] cannot be ordered by responders at 40 mg/kg: < 25% for the first, < 25% for the second.

Same assay, conditions: Rattus norvegicus, ip, Table 2; 80 mg/kg ip; read-out: Rating (survival)

`O=S(=O)(NC(CCCN1CCN(c2ncc(F)cn2)CC1)c1ccc(F)cc1)c1ccc(F)cc1` (centres unmarked) [Example 20, 1-[4-(4-Fluorophenyl)-4-(4-fluorophenylsulfonamido)butyl]-4-(5-fluoro-2-pyrimidinyl)piperazine] and `O=C(CCCN1CCN(c2ncc(F)cn2)CC1)c1ccc(F)c2ccccc12` [Example 13, 1-(4-Fluoronaphth-1-yl)-4-[4-(5-fluoro-2-pyrimidinyl)-1-piperazinyl]butanon] fall in the same range of responders at 80 mg/kg: 76 to 100% for the first, 76 to 100% for the second.

`OC(CCCN1CCN(c2ncc(F)cn2)CC1)C1CCCCC1` (centres unmarked) [Example 22, 1-Cyclohexyl-4-[4-(5-fluoro-2-pyrimidinyl)-1-piperazinyl]butanol] showed a responders at 80 mg/kg of 51 to 75%.

Same assay, conditions: Rattus norvegicus, ip, Table 2; 100 mg/kg ip; read-out: Rating (survival)

`OC(CCCN1CCN(c2ncc(F)cn2)CC1)c1ccc(F)c2ccccc12` (centres unmarked) [Example 23, 1-(4-Fluoronaphth-1-yl)-4-[4-(5-fluoro-2-pyrimidinyl)-1-piperazinyl]butanol] showed a responders at 100 mg/kg of 76 to 100%.

Same assay, conditions: Rattus norvegicus, ip, Table 3; 40 mg/kg i.p. 60 minutes prior to anoxia testing; read-out: Anti-ischemic Rating

Compared with `Fc1cnc(N2CCN(CCCCc3ccc(F)c4ccccc34)CC2)nc1` [Example 28], `O=C(NC(CCCN1CCN(c2ncc(F)cn2)CC1)c1ccc(F)cc1)c1ccc(F)c2ccccc12` (centres unmarked) [Example 44] is lower in responders at 40 mg/kg: 51 to 75% for the first, 25 to 50% for the second.

First: O=C(CCCN1CCN(c2ncc(F)cn2)CC1)C1CCCCC1 [Example 48]
Second: Fc1cnc(N2CCN(CCCCC3CCCCC3)CC2)nc1 [Example 31]
The responders at 40 mg/kg of the first is higher: 76 to 100% for the first, 25 to 50% for the second.

First: O=S(=O)(NC(CCCN1CCN(c2ncc(F)cn2)CC1)C1CCCCC1)c1ccc(F)cc1 (centres unmarked) [Example 30]
Second: O=C(NC(CCCN1CCN(c2ncc(F)cn2)CC1)C1CCCCC1)c1ccc(F)cc1 (centres unmarked) [Example 49]
The responders at 40 mg/kg of the first is higher: 25 to 50% for the first, < 25% for the second.

First: O=S(=O)(NC(CCCN1CCN(c2ncc(F)cn2)CC1)c1ccc(F)c2ccccc12)c1ccc(F)cc1 (centres unmarked) [Example 45]
Second: O=C(NC(CCCN1CCN(c2ncc(F)cn2)CC1)c1ccc(F)c2ccccc12)c1ccc(F)cc1 (centres unmarked) [Example 26]
The responders at 40 mg/kg of the first is lower: < 25% for the first, 25 to 50% for the second.

`O=C(OC(CCCN1CCN(c2ncc(F)cn2)CC1)c1ccc(F)cc1)c1ccccc1` (centres unmarked) [Example 46] and `O=C(NC(CCCN1CCN(c2ncc(F)cn2)CC1)c1ccc(F)cc1)c1ccccc1` (centres unmarked) [Example 43] fall in the same range of responders at 40 mg/kg: 25 to 50% for the first, 25 to 50% for the second.

With `Fc1ccc(CCN2CCN(c3ncc(F)cn3)CC2)cc1` [Example 47] the responders at 40 mg/kg was < 25%.

Same assay, conditions: Rattus norvegicus, ip; 40 mg/kg ip; read-out: Anti-ischemic Rating

First: COC(CCCN1CCN(c2ncc(F)cn2)CC1)c1ccc(F)cc1 (centres unmarked) [Example 42, 1-[4-(4-Fluorophenyl)-4-methoxybutyl]-4-(5-fluoropyrimidin-2-yl) piperazine hydrochloride]
Second: O=C(OC(CCCN1CCN(c2ncc(F)cn2)CC1)c1ccc(F)cc1)c1ccc(F)cc1 (centres unmarked) [Example 39, 1-(4-Fluorophenyl)-4-(4-(5-fluoro-2-pyrimidinyl)-1-piperazinyl)-1-butyl 4-fluorobenzoate hydrochloride]
The responders at 40 mg/kg of the first is lower: 25 to 50% for the first, 51 to 75% for the second.

First: [N-]=[N+]=NC(CCCN1CCN(c2ncc(F)cn2)CC1)c1ccc(F)c2ccccc12 (centres unmarked) [Example 40, 1-(4-Azido-4-(4-fluoro-1-naphthyl)-1-butyl)-4-(5-fluoro-2-pyrimidinyl)piperazine monohydrochloride]
Second: NC(CCCN1CCN(c2ncc(F)cn2)CC1)c1ccc(F)c2ccccc12 (centres unmarked) [Example 41, 1-(4-Fluoro-1-naphthyl)-4-(4-(5-fluoro-2-pyrimidinyl)-1-piperazinyl) butylamine hydrochloride]
The responders at 40 mg/kg of the first is lower: 25 to 50% for the first, 76 to 100% for the second.

With `OC(CCCN1CCN(c2ncc(F)cn2)CC1)(c1ccc(F)cc1)C1CCCCC1` (centres unmarked) [Example 37, 1-Cyclohexyl-1-(4-fluorophenyl)-4-(4-(5-fluoro-2-pyrimidinyl)-1-piperazinyl)-1-butanol] the responders at 40 mg/kg was 51 to 75%.

Same assay, conditions: Rattus norvegicus; Table 2; "^ 40^a" mg/kg ip, given 60 minutes prior to anoxia testing; read-out: Rating (survival)

In the case of `Fc1ccc(SCCCN2CCN(c3ncc(F)cn3)CC2)cc1` [Example 10, 1-[3-(4-Fluorophenylthio)propyl]-4-(5-fluoro-2-pyrimidinyl) piperazine], the responders at 40 mg/kg is reported as < 25%.

Same assay, conditions: Rattus norvegicus; ip; anoxic nitrogen test, 2 hr observation; 95% confidence limits in brackets; read-out: ED50 (19/20 C.L)

In order of rising ED50:
1. C[C@]12N[C@H](Cc3ccccc31)c1ccccc12 [(+)MK-801, reference compound]  3.1 mg/kg
2. CN(c1nc2ccccc2s1)C1CCN(CC(O)COc2ccc(F)cc2)CC1 (centres unmarked) [Sabeluzole]  4.7 mg/kg

Test system: not given
Assay: not given
Settings: Wauquier et al., Drug Development Research 8/373-380 (1986); cited from earlier work

In the case of `CN(c1nc2ccccc2s1)C1CCN(CC(O)COc2ccc(F)cc2)CC1` (centres unmarked) [Sabeluzole], the anticonvulsant properties is listed as “anticonvulsant properties”.

For `CN(c1nc2ccccc2s1)C1CCN(CC(O)COc2ccc(F)cc2)CC1` (centres unmarked) [Sabeluzole], the antihypoxic activity is listed as “potent antihypoxic agent”.

Test system: animal models of stroke and brain infarction
Assay: not given
Settings: Gotti et al., JPET 247/3, 1211-1221 (1988); cited from earlier work

In the case of `CC(C(O)c1ccc(O)cc1)N1CCC(Cc2ccccc2)CC1` (centres unmarked) [ifenprodil], the tissue sparing is given as “effective in tissue sparing”.

Reference: patent publication US4994460A, “Agents for treatment of brain ischemia” (Bristol-Myers Squibb Co., priority 1990, dated 1991)
